Test results published in PubChem BioAssay AID1259407 (Chemical Carcinogenesis Research Information System (CCRIS), 2018).
Activity calls are given as the source filed them. The rule behind the calls is not given here.

Test system: CCRIS mutagenicity, Ames/micronucleus/aberration tests
Assay: CCRIS mutagenicity studies
[1] = Test System: AMES SALMONELLA TYPHIMURIUM, Strain/Indicator: TA98, Metabolic Activation: NONE
[2] = Test System: AMES SALMONELLA TYPHIMURIUM, Strain/Indicator: TA98, Metabolic Activation: RAT, LIVER, S-9, AROCLOR 1254
[3] = Test System: AMES SALMONELLA TYPHIMURIUM, Strain/Indicator: TA100, Metabolic Activation: NONE
[4] = Test System: AMES SALMONELLA TYPHIMURIUM, Strain/Indicator: TA100, Metabolic Activation: RAT, LIVER, S-9, AROCLOR 1254
[5] = Test System: AMES SALMONELLA TYPHIMURIUM, Strain/Indicator: TA98, Metabolic Activation: NONE, Method: PREINCUBATION
[6] = Test System: AMES SALMONELLA TYPHIMURIUM, Strain/Indicator: TA100, Metabolic Activation: NONE, Method: PREINCUBATION
[7] = Test System: AMES SALMONELLA TYPHIMURIUM, Strain/Indicator: TA100, Metabolic Activation: NONE, Method: STANDARD PLATE
[8] = Test System: AMES SALMONELLA TYPHIMURIUM, Strain/Indicator: TA98, Metabolic Activation: NONE, Method: STANDARD PLATE
[9] = Test System: AMES SALMONELLA TYPHIMURIUM, Strain/Indicator: TA98, Metabolic Activation: RAT, LIVER, S-9, AROCLOR 1254, Method: STANDARD PLATE
[10] = Test System: AMES SALMONELLA TYPHIMURIUM, Strain/Indicator: TA100, Metabolic Activation: RAT, LIVER, S-9, AROCLOR 1254, Method: STANDARD PLATE

Structure (SMILES): C[As+](C)(C)CC(=O)[O-]
- mutagenic call (Test System: AMES SALMONELLA TYPHIMURIUM, Strain/Indicator: TA97, Metabolic Activation: NONE): inactive; negative
- mutagenic call (Test System: AMES SALMONELLA TYPHIMURIUM, Strain/Indicator: TA97, Metabolic Activation: RAT, GUT-FLORA EXTRACT): inactive; negative
- mutagenic call (Test System: AMES SALMONELLA TYPHIMURIUM, Strain/Indicator: TA97, Metabolic Activation: RAT, LIVER, S-9, AROCLOR 1254): inactive; negative
- mutagenic call [1]: inactive; negative
- mutagenic call (Test System: AMES SALMONELLA TYPHIMURIUM, Strain/Indicator: TA98, Metabolic Activation: RAT, GUT-FLORA EXTRACT): inactive; negative
- mutagenic call [2]: inactive; negative
- mutagenic call [3]: inactive; negative
- mutagenic call (Test System: AMES SALMONELLA TYPHIMURIUM, Strain/Indicator: TA100, Metabolic Activation: RAT, GUT-FLORA EXTRACT): inactive; negative
- mutagenic call [4]: inactive; negative
- mutagenic call (Test System: CHINESE HAMSTER V-79, Strain/Indicator: V-79/6-THIOGUANINE (HGPRT), Metabolic Activation: NONE, Method: SUSPENSION/PLATE): inactive; negative
- mutagenic call (Test System: CHINESE HAMSTER V-79, Strain/Indicator: V-79/6-THIOGUANINE (HGPRT), Metabolic Activation: RAT, LIVER, S-9, AROCLOR 1254, Method: SUSPENSION/PLATE): inactive; negative
- mutagenic call (Test System: Mouse lymphoma, Strain/Indicator: L5178Y (TK+/TK-), Metabolic Activation: None, Method: Microwell): inactive; negative

Structure (SMILES): O=C(O)Cc1ccc(Cl)cc1
- mutagenic call [5]: inactive; negative
- mutagenic call (Test System: AMES SALMONELLA TYPHIMURIUM, Strain/Indicator: TA98, Metabolic Activation: RAT LIVER S-9, PCB, Method: PREINCUBATION): inactive; negative
- mutagenic call [6]: inactive; negative
- mutagenic call (Test System: AMES SALMONELLA TYPHIMURIUM, Strain/Indicator: TA100, Metabolic Activation: RAT LIVER S-9, PCB, Method: PREINCUBATION): inactive; negative
- mutagenic call (Test System: AMES SALMONELLA TYPHIMURIUM, Strain/Indicator: TA104, Metabolic Activation: NONE, Method: PREINCUBATION): inactive; negative
- mutagenic call (Test System: AMES SALMONELLA TYPHIMURIUM, Strain/Indicator: TA104, Metabolic Activation: RAT LIVER S-9, PCB, Method: PREINCUBATION): inactive; negative
- mutagenic call (Test System: E.COLI, Strain/Indicator: WP2 UVRA, Metabolic Activation: NONE, Method: PREINCUBATION): inactive; negative
- mutagenic call (Test System: E.COLI, Strain/Indicator: WP2 UVRA, Metabolic Activation: RAT LIVER S-9, PCB, Method: PREINCUBATION): inactive; negative

Structure (SMILES): CCOC(=O)CNC(=O)CBr
- mutagenic call (Test System: AMES SALMONELLA TYPHIMURIUM, Strain/Indicator: TA100, Metabolic Activation: MOUSE, LIVER, S-9, AROCLOR 1254, Method: STANDARD PLATE): inactive; negative
- mutagenic call [7]: inactive; negative

Structure (SMILES): O=[N+]([O-])c1ccc(I)c([N+](=O)[O-])c1
- mutagenic call (Test System: AMES SALMONELLA TYPHIMURIUM, Strain/Indicator: TA98(1,8-DNP6), Metabolic Activation: NONE, Method: PREINCUBATION): active; positive
- mutagenic call (Test System: AMES SALMONELLA TYPHIMURIUM, Strain/Indicator: TA98(NR), Metabolic Activation: NONE, Method: PREINCUBATION): active; positive
- mutagenic call [5]: active; positive

Structure (SMILES): C=CC(=O)OCCC
- mutagenic call (Test System: MOUSE LYMPHOMA, Strain/Indicator: L5178Y (TK+/TK-), Metabolic Activation: NONE, Method: SUSPENSION/PLATE): active; positive. reevaluation of results: positive
- mutagenic call (Test System: MOUSE LYMPHOMA, Strain/Indicator: L5178Y (TK+/TK-), Metabolic Activation: RAT, LIVER, S-9, AROCLOR 1254, Method: SUSPENSION/PLATE): active; positive. reevaluation of results: positive

Structure (SMILES): COC(=O)[C@H]1O[C@H]1c1ccccc1
- mutagenic call [7]: active; positive

Structure (SMILES): O=c1c2c(O)cccc2oc2cc3c(c(O)c12)[C@@H]1C=CO[C@@H]1O3
- mutagenic call (Test System: AMES SALMONELLA TYPHIMURIUM, Strain/Indicator: TA98, Metabolic Activation: RAT, LIVER, S-9, PHENOBARBITAL, Method: STANDARD PLATE): inactive; negative
- mutagenic call (Test System: AMES SALMONELLA TYPHIMURIUM, Strain/Indicator: TA100, Metabolic Activation: RAT, LIVER, S-9, PHENOBARBITAL, Method: STANDARD PLATE): inactive; negative

Structure (SMILES): CC(C)(Br)C(Br)COP(=O)(OCC(Br)C(C)(C)Br)OCC(Br)C(C)(C)Br (configuration not stated)
- mutagenic call (Test System: AMES SALMONELLA TYPHIMURIUM, Strain/Indicator: TA100, Metabolic Activation: RAT, LIVER, MICROSOMES, PHENOBARBITAL, Method: PREINCUBATION): inactive; negative
- mutagenic call (Test System: AMES SALMONELLA TYPHIMURIUM, Strain/Indicator: TA100, Metabolic Activation: RAT, LIVER, MICROSOMES, Method: PREINCUBATION): inactive; negative

Structure (SMILES): Nc1ccc2c(O)cc(S(=O)(=O)O)cc2c1
- mutagenic call (End Point: IN VITRO CHROMOSOMAL ABERRATIONS, Test System: CHL CELLS, Metabolic Activation: NONE): inactive; negative
- mutagenic call (End Point: IN VITRO CHROMOSOMAL ABERRATIONS, Test System: CHL CELLS, Metabolic Activation: RAT, LIVER, S-9, SODIUM PHENOBARBITAL AND 5,6-BENZOFLAVONE): active; positive

Structure (SMILES): COC(=O)c1c2c(c3ccccc3c1O)OC(C)(C)C=C2
- mutagenic call [6]: active; positive
- mutagenic call (Test System: AMES SALMONELLA TYPHIMURIUM, Strain/Indicator: TA100, Metabolic Activation: RAT, LIVER, S-9, PCB, Method: PREINCUBATION): active; positive

Structure (SMILES): CC(=O)OCc1ccc2ccc3cccc4ccc1c2c34
- mutagenic call [5]: active; positive

Structure (SMILES): O[C@@H]1c2ccccc2-c2ccc3ccccc3c2[C@H]1O
- mutagenic call [8]: inactive; negative
- mutagenic call [9]: inactive; negative
- mutagenic call [7]: inactive; negative
- mutagenic call [10]: inactive; negative

Structure (SMILES): O=[N+]([O-])c1ccc(Br)cc1
- mutagenic call (End Point: IN VITRO CHROMOSOMAL ABERRATIONS, Test System: HUMAN PERIPHERAL LYMPHOCYTES, Metabolic Activation: NONE): inactive; negative
- mutagenic call [5]: inactive; negative
- mutagenic call (Test System: AMES SALMONELLA TYPHIMURIUM, Strain/Indicator: TA98, Metabolic Activation: RAT, LIVER, S-9, KANECHLOR 500, Method: PREINCUBATION): inactive; negative
- mutagenic call [6]: inactive; negative
- mutagenic call (Test System: AMES SALMONELLA TYPHIMURIUM, Strain/Indicator: TA100, Metabolic Activation: RAT, LIVER, S-9, KANECHLOR 500, Method: PREINCUBATION): active; positive

Structure (SMILES): CCCC(=O)Nc1ccc(OCC(O)CNC(C)C)c(C(C)=O)c1 (configuration not stated)
- mutagenic call [1]: inactive; negative
- mutagenic call [8]: inactive; negative
- mutagenic call [2]: inactive; negative
- mutagenic call [9]: inactive; negative
- mutagenic call [3]: inactive; negative
- mutagenic call [7]: inactive; negative
- mutagenic call [4]: inactive; negative
- mutagenic call [10]: inactive; negative
- mutagenic call (Test System: AMES SALMONELLA TYPHIMURIUM, Strain/Indicator: TA1535, Metabolic Activation: NONE): inactive; negative
- mutagenic call (Test System: AMES SALMONELLA TYPHIMURIUM, Strain/Indicator: TA1535, Metabolic Activation: RAT, LIVER, S-9, AROCLOR 1254): inactive; negative
- mutagenic call (Test System: AMES SALMONELLA TYPHIMURIUM, Strain/Indicator: TA1537, Metabolic Activation: NONE): inactive; negative
- mutagenic call (Test System: AMES SALMONELLA TYPHIMURIUM, Strain/Indicator: TA1537, Metabolic Activation: RAT, LIVER, S-9, AROCLOR 1254): inactive; negative

Structure (SMILES): CC(C)(C)NCC(O)c1ccc(O)c(NC(N)=O)c1 (configuration not stated)
- mutagenic call [8]: inactive; negative
- mutagenic call [9]: inactive; negative
- mutagenic call [7]: inactive; negative
- mutagenic call [10]: inactive; negative
